Laboratory results from patent US8841316B2, “Multicomponent crystalline system of rosuvastatin calcium salt and vanillin” (BASF SE, priority 2011, dated 2014).

Experiment: Water vapor sorption (water content under humidity)
Type: physicochemical

In the case of “bis[(E)-7-[4-(4-fluorophenyl)-6-isopropyl-2-[methyl(methylsulfonyl)amino]pyrimidin-5-yl](3R,5S)-3,5-dihydroxyhept-6-enoic acid] calcium salt [Crystal form A]”, the “Water vapor sorption: water content after 2 h at 50% r.h.” value (after 2 h at 50% r.h.) is reported as 6.2% and the “Water vapor sorption: water content after 5 h at 95% r.h.” value (after 5 h at 95% r.h.) is reported as 10.1%.
